# “Also recorded” adds a separate entry of the source.
# What was measured:
# Akt (Ser473) = experiment: Western blot, activating phosphorylation of Akt (Ser473); type: cell-based; conditions: n = 4–8; for insulin-induced Akt phosphorylation: 400 nmol/L insulin, adipocytes, HEK cells, podocytes, macrophages; for basal Akt phosphorylation: without insulin, cells grown on o- or m-Tyr medium
# Experimental: (§1) Early passages of mouse embryo fibroblast (3T3-L1) (ATCC, Manassas, VA, US) were cultured in Dulbecco’s modified Eagle medium (DMEM, Sigma Aldrich, Budapest, Hungary, CAT number: D6046; Invitrogen, Waltham, MA, USA, CAT number: 41966-029) supplemented with 100 U/mL penicillin, 0.1 mg/mL streptomycin (Gibco, Budapest, Hungary, CAT number: 15070-063) and 10% heat-inactivated Fetal Bovine Serum (FBS, Gibco, CAT number: 16170-078), supplemented with 398 nM p-, m-, or o-Tyr (equimolar to the original p-Tyr content of the medium) purchased from Sigma (CAT number: para-Tyr: T8566, m-Tyr: T3629, o-Tyr: 93851). Media contained 25 or 5 mmol/L glucose (experiment dependent) pyruvate and L-glutamine. Cells were grown at 37 °C and 5% CO2. Adipocyte differentiation was achieved by DMEM supplemented with 10% FBS (Gibco, Csertex, Budapest, Hungary, CAT number: 10106-169) (FBS) and a […] insulin (Sigma Aldrich, Budapest, Hungary, CAT number: I 9278), […] isobuthylmethylxanthine (Sigma Aldrich, Budapest, Hungary, CAT number: I 5879), and 250 nmol/L dexamethasone (Sigma Aldrich, Budapest, Hungary, CAT number: 861871) containing cocktail. From day 4 onward, cultures were maintained in DMEM containing 1.5 μg/mL insulin and 10% FBS with a medium change every other day until experimental treatments were started. After 90% of the cell population reached the adipocyte phenotype, prior to all treatments, cells were incubated overnight in serum-deprived medium. Experimental treatment was performed in serum-deprived medium containing 200 or 400 nmol/L insulin, for 5 min.
# (§2) The conditionally immortalized human podocyte cell line (provided by Moin Saleem, University of Bristol, UK) was cultured in RPMI1640 medium (R8756, Sigma Aldrich, Budapest, Hungary) supplemented with 10% heat-inactivated FBS (16170-078, Gibco, Budapest, Hungary), insulin-transferrin-selenium supplement (41400-045, Gibco), 100 U/mL penicillin, 0.1 mg/mL streptomycin (P4333, Sigma), and […] (equimolar to the original p-Tyr content of the medium) para-, meta-, or ortho-Tyr. The cells were grown at 33 °C 5% CO2, and when they reached 40–60% confluency they were transferred to 37 °C to differentiate. Following the thermoswitching, cells were kept on RPMI1640 medium containing 2% FBS, antibiotics, and different tyrosines. Before every treatment, cells were incubated in serum-deprived medium overnight.
# (§3) HEK-293 immortalized cell line (ATCC, Manassas, VA, USA) of epithelial morphology and the J774A.1 mouse BALB/C monocyte-macrophage cell lines (91051511-1VL, Sigma Aldrich, Budapest, Hungary) were cultured in Petri dishes with a medium composed of Dulbecco’s modified Eagle’s medium (DMEM, Sigma Aldrich, Budapest, Hungary, CAT number: D6046, Invitrogen, CAT number: 41966-029), with a 10% heat-inactivated FBS supplementation (16170-078, Gibco), insulin-transferrin-selenium supplement (41400-045, Gibco, Budapest, Hungary,), 100 U/mL penicillin and 0.1 mg/mL streptomycin (P4333, Sigma) and 398 nM para (5 and 25 mmol/L), meta-, or ortho-Tyr (T8566, T3629, 93851, Sigma). Before treatment, cells were incubated in serum-deprived medium overnight as well. […]
# (§4) The samples of lysates were vortexed and centrifuged (10 min, 13,000 rpm, at 4 °C). Protein content of the samples was determined by the Lowry method using bovine serum albumin as a standard. […]
# IRS-1 (Tyr612) = experiment: Western blot, activating phosphorylation of IRS-1 (Tyr612); type: cell-based; conditions: n = 4–8; for insulin-induced IRS-1 phosphorylation: 400 nmol/L insulin, adipocytes, HEK cells, podocytes, macrophages; for basal IRS-1 phosphorylation: without insulin, cells grown on o- or m-Tyr medium
# Experimental: as §1, §2, §3, §4
# p-IRS-1 in podocytes = experiment: Immunofluorescence of p-IRS-1 in insulin-treated podocytes; type: cell-based, human; conditions: 400 nmol/l insulin for 10 min; for p-IRS-1 intensity: vs. p-Tyr
# Experimental: as §2
# In a 6-well plate, 104 cells were cultured on glass coverslips washed with alcohol and dried under UV light. The podocyte cells were grown in RPMI1640 medium supplemented with 10% heat-inactivated FBS at 33 °C, 5% CO2. When they reached 60% confluence, the medium was changed to RPMI1640 medium containing 2% FBS and 112.05 nM of the different tyrosine isoforms, then the plates were transferred to 37 °C, 5% CO2 to allow the cells to differentiate. The different tyrosine isoforms were added to the maintenance medium. The cells were serum deprived overnight, then incubated with 400 nmol/l insulin for 10 min. After removal of the medium, the coverslips were washed twice with PBS. The cells were fixed at room temperature in 2% paraformaldehyde and 4% sucrose for 8 min, then permeabilized using 0.3% Trion X-100 in 1xPBS for 20 min and blocked in 2.5% BSA for 45 min [45]. The primary antibody was diluted in 1xPBS, and the cells were incubated in it for 60 min in humid conditions. The antibodies we used were mouse anti-WT1 antibody (H-1) (1:100, Santa Cruz Biotechnology, Dallas, TX, USA), chicken anti-vimentin antibody (1:100, Abcam), rabbit anti-glucose transporter GLUT4 antibody (1:100, Abcam, Cambridge, UK), mouse Insulin Receptor Substrate-1 antibody (1:100, Invitrogen, Waltham, MA, USA), and rabbit anti-phospho-Insulin Receptor Substrate-1 (pTyr612) antibody (1:10, Sigma). Coverslips were washed in PBS three times for 5 min in PBS and incubated in the fluorophore-conjugated secondary antibodies anti-goat, anti-chicken, secondary antibody Alexa fluor 647, anti-rabbit Alexa fluor 350, and anti-mouse Alexa Fluor 488 (1:10, Invitrogen) for 60 min. Samples were then washed in PBS three times for 5 min and mounted in Vectashield (Vector Laboratories). Images were taken with a Nikon Eclipse Ti2 microscope.
# erythroblasts = conditions: ref [43]; cited from earlier work
# Source text: Furthermore, m- and o-Tyr may have a role beyond being markers ROS attack. […] For example, we have described that patients on renal replacement therapy show a connection between plasma levels of o-Tyr and erythropoietin (EPO) resistance. In a further set of experiments, m- and o-Tyr in ...
Structure (SMILES),insulin-induced Akt phosphorylation (Akt (Ser473)),basal Akt phosphorylation (Akt (Ser473)),insulin-induced IRS-1 phosphorylation (IRS-1 (Tyr612)),basal IRS-1 phosphorylation (IRS-1 (Tyr612)),membrane translocation of IRS-1 / p-IRS-1 (p-IRS-1 in podocytes),p-IRS-1 intensity (p-IRS-1 in podocytes),EPO-dependent proliferation of erythroblasts (erythroblasts),membrane translocation of IRS-1 / p-IRS-1 (p-IRS-1 in podocytes; listed as o-Ty)
"N[C@@H](Cc1cccc(O)c1)C(=O)O [m-Tyr, meta-tyrosine]",could not be further raised by insulin treatment,either unchanged or higher,could not be further raised by insulin treatment,either unchanged or higher,absent; also recorded: not characteristic,lower,"inhibited the EPO-dependent proliferation of erythroblasts, in a time- and dose-dependent manner",–
"NC(Cc1ccccc1O)C(=O)O (stereo not drawn) [o-Tyr, ortho-tyrosine]",could not be further raised by insulin treatment,either unchanged or higher,could not be further raised by insulin treatment,either unchanged or higher,not characteristic,lower; also recorded: the signal almost disappears,"inhibited the EPO-dependent proliferation of erythroblasts, in a time- and dose-dependent manner",absent

# — publication PMC9138545, “Incorporation of Oxidized Phenylalanine Derivatives into Insulin Signaling Relevant Proteins May Link Oxidative Stress to Signaling Conditions Underlying Chronic Insulin Resistance” (Biomedicines, 2022)
